# Tested on: HEK293 cells
# Test: Preliminary screening as DNA vectors, GFP transfection of HEK293 cells
# Format: cell-based
# Details: amino lipid/DOPE liposome with 75 ng plasmid DNA (psin-EGFP-IRES-Puro); number of GFP-expressing cells divided by total nuclei (Hoechst)
# Method in brief: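 Lipid + DOPE liposomes (NaOAc, pH 5.6) complexed w/ 75 ng psin-EGFP-IRES-Puro, 30 min RT; added to 3-5×10^4 HEK293/well, 37° C. Hoechst 0.2 μg/mL at 20-24 h, imaged after further 20-24 h. Efficiency = GFP+ cells / total nuclei.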
row,SMILES,Absolute DNA transfection efficiency in HEK293 cells [%]
1,CCCCCCCCCCCCCCCCNc1nc(NCCCN2CCN(C)CC2)nc(SCCCCCCCCCC)n1 [S10N16 D9],5.0
2,CCCCCCCCCCCCCCCCNc1nc(NCC2CCN(C)CC2)nc(SCCCCCCCCCC)n1 [S10N16 D10],8.7
3,CCCCCCCCCCCCCCCCCCNc1nc(NCCN(C)C)nc(SCCCCCCCCCC)n1 [S10N18 D1],9.0
4,CCCCCCCCCCCCCCCCCCNc1nc(NCCN2CCOCC2)nc(SCCCCCCCCCC)n1 [S10N18 D2],2.1
5,CCCCCCCCCCCCCCCCCCNc1nc(NCCN2CCCC2)nc(SCCCCCCCCCC)n1 [S10N18 D3],11.9
6,CCCCCCCCCCCCCCCCCCNc1nc(NCCN2CCCCC2)nc(SCCCCCCCCCC)n1 [S10N18 D4],4.9
7,CCCCCCCCCCCCCCCCCCNc1nc(NCCN2CCN(C)CC2)nc(SCCCCCCCCCC)n1 [S10N18 D5],1.8
8,CCCCCCCCCCCCCCCCCCNc1nc(NCCCN(C)C)nc(SCCCCCCCCCC)n1 [S10N18 D6],7.8
9,CCCCCCCCCCCCCCCCCCNc1nc(NCCN(CC)CC)nc(SCCCCCCCCCC)n1 [S10N18 D7],4.0
10,CCCCCCCCCCCCCCCCCCNc1nc(NCCCN2CCOCC2)nc(SCCCCCCCCCC)n1 [S10N18 D8],0.3
11,CCCCCCCCCCCCCCCCCCNc1nc(NCCCN2CCN(C)CC2)nc(SCCCCCCCCCC)n1 [S10N18 D9],3.3
12,CCCCCCCCCCCCCCCCCCNc1nc(NCC2CCN(C)CC2)nc(SCCCCCCCCCC)n1 [S10N18 D10],3.8
13,CCCCCCCCCCCCN(CCCCCCCCCCCC)c1nc(NCCN(C)C)nc(SCCCCCCCCCC)n1 [S10^2N12 D1],3.2
14,CCCCCCCCCCCCN(CCCCCCCCCCCC)c1nc(NCCN2CCOCC2)nc(SCCCCCCCCCC)n1 [S10^2N12 D2],0.0
15,CCCCCCCCCCCCN(CCCCCCCCCCCC)c1nc(NCCN2CCCC2)nc(SCCCCCCCCCC)n1 [S10^2N12 D3],1.1
16,CCCCCCCCCCCCN(CCCCCCCCCCCC)c1nc(NCCN2CCCCC2)nc(SCCCCCCCCCC)n1 [S10^2N12 D4],0.1
17,CCCCCCCCCCCCN(CCCCCCCCCCCC)c1nc(NCCN2CCN(C)CC2)nc(SCCCCCCCCCC)n1 [S10^2N12 D5],0.9
18,CCCCCCCCCCCCN(CCCCCCCCCCCC)c1nc(NCCCN(C)C)nc(SCCCCCCCCCC)n1 [S10^2N12 D6],4.3
19,CCCCCCCCCCCCN(CCCCCCCCCCCC)c1nc(NCCN(CC)CC)nc(SCCCCCCCCCC)n1 [S10^2N12 D7],0.7
20,CCCCCCCCCCCCN(CCCCCCCCCCCC)c1nc(NCCCN2CCOCC2)nc(SCCCCCCCCCC)n1 [S10^2N12 D8],0.0
21,CCCCCCCCCCCCN(CCCCCCCCCCCC)c1nc(NCCCN2CCN(C)CC2)nc(SCCCCCCCCCC)n1 [S10^2N12 D9],0.5
22,CCCCCCCCCCCCN(CCCCCCCCCCCC)c1nc(NCC2CCN(C)CC2)nc(SCCCCCCCCCC)n1 [S10^2N12 D10],3.3
23,CCCCCCCCCCCSc1nc(NCCCCCC)nc(NCCN(C)C)n1 [S11N6 D1],33.1
24,CCCCCCCCCCCSc1nc(NCCCCCC)nc(NCCN2CCOCC2)n1 [S11N6 D2],19.0
25,CCCCCCCCCCCSc1nc(NCCCCCC)nc(NCCN2CCCC2)n1 [S11N6 D3],8.3

# From patent publication US20230123334A1, “AMINO LIPID COMPOUND, PREPARATION METHOD THEREFOR, AND APPLICATION THEREOF” (SHENZHEN SHENXIN BIOTECHNOLOGY CO., LTD., priority 2020, published 2023)
